Experiment [1] has as its target Tumor necrosis factor receptor superfamily member 10B (Homo sapiens) (UniProt O14763). The experiment in a line: TRAIL sensitizers in caspase-8 expressing neuroblastoma cells, dose response, NB7 cells plus caspase-8, luminescence, panel (AID 652002). To be noted: NB7 neuroblastoma +caspase-8, TRAIL sensitization, luminescence viability; NB7+Caspase-8; with TRAIL, mean of runs.

A further experiment deals with NB7+Caspase-8. Described as above. To be noted: NB7 neuroblastoma +caspase-8, TRAIL sensitization, luminescence viability, with TRAIL.
Test in experiment [2]: as above
To be noted: NB7 neuroblastoma +caspase-8, no TRAIL, compound-alone cytotoxicity counter-screen, luminescence viability, NB7+Caspase-8. In general terms: Counterscreens check selectivity or assay interference.

The mark [3] stands for this setting: run 1, single replicate panel EC50.
Setting [4] is: run 2, single replicate panel EC50.

The source made the active and inactive calls. The rule behind the calls is not given here.

Sequence of Tumor necrosis factor receptor superfamily member 10B (Homo sapiens) (O14763 whole entry, looked up): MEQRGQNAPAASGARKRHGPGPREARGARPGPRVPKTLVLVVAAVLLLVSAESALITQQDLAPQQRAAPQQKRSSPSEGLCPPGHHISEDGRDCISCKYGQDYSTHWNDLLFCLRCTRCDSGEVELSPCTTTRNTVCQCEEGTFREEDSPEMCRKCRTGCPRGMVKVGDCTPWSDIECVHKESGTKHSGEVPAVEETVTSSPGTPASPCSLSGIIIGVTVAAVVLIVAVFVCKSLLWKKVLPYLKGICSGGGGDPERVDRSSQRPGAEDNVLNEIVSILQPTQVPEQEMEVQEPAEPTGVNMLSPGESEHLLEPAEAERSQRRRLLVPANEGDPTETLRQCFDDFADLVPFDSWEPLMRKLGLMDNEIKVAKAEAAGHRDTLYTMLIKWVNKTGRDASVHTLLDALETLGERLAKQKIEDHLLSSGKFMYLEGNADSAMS

For orientation: EC50 means the concentration at which the effect is half-maximal. As for `Clc1nc(Cl)c2ncn(-c3ccccc3)c2n1`, the EC50 in experiment [1] was > 12.5 µM (inactive); on NB7+Caspase-8 (setting [3]), greater than 12.5 µM; on NB7+Caspase-8 (setting [4]), greater than 12.5 µM; in experiment [2] (mean of runs), > 12.5 µM (inactive); in experiment [2] (setting [3]) it was greater than 12.5 µM; in experiment [2] (setting [4]), greater than 12.5 µM.

Turning to `CSc1ccc(/C=C/c2ccc3cccc(O)c3n2)cc1`, the EC50 result in experiment [1] and in experiment [2] (mean of runs) was “inactive” each time. The EC50 is greater than 12.5 µM on NB7+Caspase-8 (setting [3]), 6.31 µM at NB7+Caspase-8 (setting [4]), 7.93 µM in experiment [2] (setting [3]) and greater than 12.5 µM in experiment [2] (setting [4]).

For the molecule `c1ccc(-c2cnc(-c3ccccn3)nn2)cc1`, the EC50 entry in experiment [1] and in experiment [2] (mean of runs) was “inactive” throughout. Besides, the EC50 at NB7+Caspase-8 (setting [3]) is greater than 12.5 µM; on NB7+Caspase-8 (setting [4]), 5.78 µM; in experiment [2] (setting [3]) it was 5.74 µM; in experiment [2] (setting [4]), 10 µM.

For `CCOC(=O)c1sc(NC(=O)c2cc(-c3ccccc3C)nc3ccccc23)c(C#N)c1C`, the EC50 in experiment [1] is > 12.5 µM (inactive); at NB7+Caspase-8 (setting [3]) it was greater than 12.5 µM; on NB7+Caspase-8 (setting [4]), greater than 12.5 µM; in experiment [2] (mean of runs) it was > 12.5 µM (inactive); in experiment [2] (setting [3]) it was greater than 12.5 µM; in experiment [2] (setting [4]), greater than 12.5 µM.

Consider `CCOC(=O)c1cccc(-[n+]2c(-c3ccccc3)cc(-c3ccccc3)cc2-c2ccccc2)c1`, for which the EC50 in experiment [1] is > 12.5 µM (inactive); at NB7+Caspase-8 (setting [3]), greater than 12.5 µM; on NB7+Caspase-8 (setting [4]), greater than 12.5 µM; in experiment [2] (mean of runs), > 12.5 µM (inactive); in experiment [2] (setting [3]) it was greater than 12.5 µM; in experiment [2] (setting [4]), greater than 12.5 µM.

Regarding `O=C1c2ccc(Cl)cc2S(=O)(=O)c2cccc(C(=O)N3CCC(Cc4ccccc4)CC3)c21`, the EC50 in experiment [1] was > 12.5 µM (inactive); at NB7+Caspase-8 (setting [3]), greater than 12.5 µM; on NB7+Caspase-8 (setting [4]), greater than 12.5 µM; in experiment [2] (mean of runs) it was > 12.5 µM (inactive); in experiment [2] (setting [3]) it was greater than 12.5 µM; in experiment [2] (setting [4]) it was greater than 12.5 µM.

Take `COc1ccc(-c2cc(C(=O)OCC(=O)Nc3ccc4c(c3)OCO4)c3ccccc3n2)cc1`: the EC50 result in experiment [1] and in experiment [2] (mean of runs) was “inactive” in each case. In addition, the EC50 on NB7+Caspase-8 (setting [3]) is greater than 12.5 µM; on NB7+Caspase-8 (setting [4]) it was 7.82 µM; in experiment [2] (setting [3]), 6.39 µM; in experiment [2] (setting [4]), 6.23 µM.

`CCOC(=O)c1cnc2c(-c3ccccc3)cnn2c1N`: the EC50 in experiment [1] is > 12.5 µM (inactive); at NB7+Caspase-8 (setting [3]) it was greater than 12.5 µM; on NB7+Caspase-8 (setting [4]), greater than 12.5 µM; in experiment [2] (mean of runs), > 12.5 µM (inactive); in experiment [2] (setting [3]), greater than 12.5 µM; in experiment [2] (setting [4]) it was greater than 12.5 µM.

Regarding `CCN(CC)c1ccc(NC(=O)Nc2ccccc2)cc1`, the EC50 result in experiment [1] and in experiment [2] (mean of runs) was “inactive” in each case. For the same molecule, the EC50 on NB7+Caspase-8 (setting [3]) is greater than 12.5 µM; at NB7+Caspase-8 (setting [4]) it was 8.27 µM; in experiment [2] (setting [3]), greater than 12.5 µM; in experiment [2] (setting [4]) it was 10.9 µM.

`Cc1onc(-c2c(Cl)cccc2Cl)c1C(=O)ONC(=O)c1ccccc1`: the EC50 was > 12.5 µM (inactive) in experiment [1]; greater than 12.5 µM on NB7+Caspase-8 (setting [3]); greater than 12.5 µM on NB7+Caspase-8 (setting [4]); > 12.5 µM (inactive) in experiment [2] (mean of runs); greater than 12.5 µM in experiment [2] (setting [3]); greater than 12.5 µM in experiment [2] (setting [4]).

As to `CCOC(=O)c1sc(NC(=O)c2cccc(S(=O)(=O)N3CCc4ccccc43)c2)c(C#N)c1C`, the EC50 is > 12.5 µM (inactive) in experiment [1]; greater than 12.5 µM at NB7+Caspase-8 (setting [3]); greater than 12.5 µM at NB7+Caspase-8 (setting [4]); > 12.5 µM (inactive) in experiment [2] (mean of runs); greater than 12.5 µM in experiment [2] (setting [3]); greater than 12.5 µM in experiment [2] (setting [4]).

Consider `COC(=O)c1ccc(/C=C(\C#N)c2ccccn2)cc1`, for which the EC50 in experiment [1] was > 12.5 µM (inactive); at NB7+Caspase-8 (setting [3]), greater than 12.5 µM; on NB7+Caspase-8 (setting [4]), greater than 12.5 µM; in experiment [2] (mean of runs), > 12.5 µM (inactive); in experiment [2] (setting [3]), greater than 12.5 µM; in experiment [2] (setting [4]), greater than 12.5 µM.

In the case of `CCOc1ccc(NC(=O)Nc2cccs2)cc1`, the EC50 result in experiment [1] and in experiment [2] (mean of runs) was “inactive” throughout. Moreover, the EC50 is greater than 12.5 µM on NB7+Caspase-8 (setting [3]), 6.86 µM on NB7+Caspase-8 (setting [4]), 10.7 µM in experiment [2] (setting [3]) and 6.47 µM in experiment [2] (setting [4]).

Turning to `CN(C)c1ccc(N/C=C/C(=O)c2ccco2)cc1`, the EC50 entry in experiment [1] and in experiment [2] (mean of runs) was “inactive” in each case. The EC50 at NB7+Caspase-8 (setting [3]) is 7.78 µM; at NB7+Caspase-8 (setting [4]) it was 6.42 µM; in experiment [2] (setting [3]) it was 7.62 µM; in experiment [2] (setting [4]) it was greater than 12.5 µM.

Consider `C/C(=N\NC(=O)c1csc(C)c1C)c1ccco1`, for which the EC50 in experiment [1] was > 12.5 µM (inactive); at NB7+Caspase-8 (setting [3]), greater than 12.5 µM; on NB7+Caspase-8 (setting [4]) it was greater than 12.5 µM; in experiment [2] (mean of runs), > 12.5 µM (inactive); in experiment [2] (setting [3]), greater than 12.5 µM; in experiment [2] (setting [4]) it was greater than 12.5 µM.

Source of the values: PubChem BioAssay AID652002 (Sanford-Burnham Center for Chemical Genomics, 2013).
